Read-outs that look alike come from different tables or passages of the source.
Tests used:
Conditions in all cases: range stated for the listed group of compounds
Human tumor cells = assay: Soft Agar Assay (anchorage-independent growth, colony count after MTT staining); assay type: cell-based
Procedure: Anchorage-independent growth is a characteristic of tumorigenic cell lines. Human tumor cells are suspended in growth medium containing 0.3% agarose and an indicated concentration of a farnesyl transferase inhibitor. The solution is overlayed onto growth medium solidified with 0.6% agarose containing the same concentration of farnesyl transferase inhibitor as the top layer. After the top layer is solidified, plates are incubated for 10-16 days at 37°C under 5% CO2 to allow colony outgrowth. After incubation, the colonies are stained by overlaying the agar with a solution of MTT (3-[4,5-dimethylthiazol-2-yl]-2.5-diphenyltetrazolium bromide, Thiazolyl blue) (1 mg/mL in PBS). Colonies can be counted and the IC50's can be determined.

COS Cell = COS Cell IC50 (Cell-Based Assay, procedure of WO 95/10516)
Procedure: (§1) FPT IC50 (inhibition of farnesyl protein transferase, in vitro enzyme assay) and COS Cell IC50 (Cell-Based Assay) were determined following the assay procedures described in WO 95/10516, published April 20, 1995. GGPT IC50 (inhibition of geranylgeranyl protein transferase, in vitro enzyme assay), Cell Mat Assay, and anti-tumor activity (in vivo anti-tumor studies) could be determined by the assay procedures described in WO 95/10516.

[1] = biological target: farnesyl protein transferase (Homo sapiens, UniProt P49354+P49356); assay: FPT IC50, inhibition of farnesyl protein transferase, in vitro enzyme assay (procedure of WO 95/10516); assay type: biochemical
farnesyl protein transferase, sequence (P49356 whole entry, one chain of several): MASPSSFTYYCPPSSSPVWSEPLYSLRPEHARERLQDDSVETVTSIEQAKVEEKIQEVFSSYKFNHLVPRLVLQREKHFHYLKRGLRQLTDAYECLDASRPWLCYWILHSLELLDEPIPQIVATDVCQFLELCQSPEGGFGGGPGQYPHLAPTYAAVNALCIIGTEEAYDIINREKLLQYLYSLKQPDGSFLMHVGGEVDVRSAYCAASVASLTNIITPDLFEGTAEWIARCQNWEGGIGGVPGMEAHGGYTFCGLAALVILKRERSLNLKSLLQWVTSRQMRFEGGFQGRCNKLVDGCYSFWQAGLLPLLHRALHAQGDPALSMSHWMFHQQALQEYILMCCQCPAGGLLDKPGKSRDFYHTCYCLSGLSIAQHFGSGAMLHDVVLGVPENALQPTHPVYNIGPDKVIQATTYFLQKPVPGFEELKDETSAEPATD
Procedure: as §1

[2] = k-ras, read-out: FPT IC50 (k-ras)
[3] = ras form not stated, read-out: FPT IC50
[4] = H-ras, read-out: FPT IC50 (H-ras)

| SMILES | IC50 (Human tumor cells) [nM] | IC50 (COS Cell; read-out: Cos Cell) [nM] | IC50 [1, 2] [nM] | IC50 [1, 3] [nM] | IC50 (COS Cell; read-out: Cos Cell IC50) [nM] | IC50 [1, 4] [nM] |
| --- | --- | --- | --- | --- | --- | --- |
| Cc1nccn1CC(=O)N1CCC(CC(=O)N2CCC([C@H]3c4ncc(Br)cc4CCc4cc(Cl)cc(Br)c43)CC2)CC1 [Compound 10.0-B] | ≥ 19.5 | ≥ 9 | 14.5 to 71.2 | 0.7 to 18 | – | – |
| O=C(O)CCCC(=O)N1CCC(CC(=O)N2CCC([C@H]3c4ncc(Br)cc4CCc4cc(Cl)cc(Br)c43)CC2)CC1 [Compound 19.0-B] | ≥ 19.5 | ≥ 9 | – | 0.7 to 18 | – | – |
| O=C(CC1CCN(C(=O)CC2COCCO2)CC1)N1CCC([C@H]2c3ncc(Br)cc3CCc3cc(Cl)cc(Br)c32)CC1 (stereo partly shown) [Compound 114.2-B] | ≥ 19.5 | ≥ 9 | – | 0.7 to 18 | – | – |
| O=C(Cc1c[nH]cn1)N1CCC(CC(=O)N2CCC([C@H]3c4ncc(Br)cc4CCc4cc(Cl)cc(Br)c43)CC2)CC1 [Compound 30.0-B] | ≥ 19.5 | ≥ 9 | – | 0.7 to 18 | – | – |
| O=C(O)CC(=O)N1CCC(CC(=O)N2CCC([C@H]3c4ncc(Br)cc4CCc4cc(Cl)cc(Br)c43)CC2)CC1 [Compound 14.0-B] | ≥ 19.5 | ≥ 9 | – | 0.7 to 18 | – | – |
| COC(=O)CCCCCC(=O)N1CCC(CC(=O)N2CCC([C@H]3c4ncc(Br)cc4CCc4cc(Cl)cc(Br)c43)CC2)CC1 [Compound 68.0-B] | ≥ 19.5 | ≥ 9 | – | 0.7 to 18 | – | – |
| CC(C)=NOCC(=O)N1CCC(CC(=O)N2CCC([C@H]3c4ncc(Br)cc4CCc4cc(Cl)cc(Br)c43)CC2)CC1 [Compound 9.0-B] | ≥ 19.5 | ≥ 9 | 14.5 to 71.2 | 0.7 to 18 | – | – |
| O=C(CC1CCN(C(=O)[C@@H]2CCCN2)CC1)N1CCC([C@H]2c3ncc(Br)cc3CCc3cc(Cl)cc(Br)c32)CC1 [Compound 10.0] | ≥ 19.5 | – | 14.5 to 71.2 | – | 10 to 700 | 2 to 31.7 |
| CCOC(=O)c1ncn(CC(=O)N2CCC(CC(=O)N3CCC([C@H]4c5ncc(Br)cc5CCc5cc(Cl)cc(Br)c54)CC3)CC2)c1C [Compound 54.0-B] | ≥ 19.5 | ≥ 9 | – | 0.7 to 18 | – | – |
| CN(C)CC(=O)N1CCC(CC(=O)N2CCC(C3c4ncc(Br)cc4CCc4cc(Cl)cc(Br)c43)CC2)CC1 (single isomer, unassigned; (+)) [Compound 12.1] | ≥ 19.5 | – | 14.5 to 71.2 | – | 10 to 700 | 2 to 31.7 |
| O=C(O)CCC(=O)N1CCC(CC(=O)N2CCC([C@H]3c4ncc(Br)cc4CCc4cc(Cl)cc(Br)c43)CC2)CC1 [Compound 18.0-B] | ≥ 19.5 | ≥ 9 | 14.5 to 71.2 | 0.7 to 18 | – | 2 to 31.7 |
| O=C(O)CCCCCC(=O)N1CCC(CC(=O)N2CCC([C@H]3c4ncc(Br)cc4CCc4cc(Cl)cc(Br)c43)CC2)CC1 [Compound 70.0-B] | ≥ 19.5 | ≥ 9 | – | 0.7 to 18 | – | – |
| CN(C)C(=O)C(=O)N1CCC(CC(=O)N2CCC([C@H]3c4ncc(Br)cc4CCc4cc(Cl)cc(Br)c43)CC2)CC1 [Compound 33.0-B] | ≥ 19.5 | ≥ 9 | – | 0.7 to 18 | – | – |
| COC(=O)Cc1cn(CC(=O)N2CCC(CC(=O)N3CCC([C@H]4c5ncc(Br)cc5CCc5cc(Cl)cc(Br)c54)CC3)CC2)cn1 [Compound 56.0-B] | ≥ 19.5 | ≥ 9 | – | 0.7 to 18 | – | – |
| CC(=O)C(=O)N1CCC(CC(=O)N2CCC([C@H]3c4ncc(Br)cc4CCc4cc(Cl)cc(Br)c43)CC2)CC1 [Compound 72.0-B] | ≥ 19.5 | ≥ 9 | – | 0.7 to 18 | – | – |
| O=C(CC1CCN(C(=O)CN2CCCCC2)CC1)N1CCC([C@H]2c3ncc(Br)cc3CCc3cc(Cl)cc(Br)c32)CC1 [Compound 75.0-B] | ≥ 19.5 | ≥ 9 | – | 0.7 to 18 | – | – |
| NCCC(=O)N1CCC(CC(=O)N2CCC([C@H]3c4ncc(Br)cc4CCc4cc(Cl)cc(Br)c43)CC2)CC1 [Compound 88.0-B] | ≥ 19.5 | ≥ 9 | – | 0.7 to 18 | – | – |

| SMILES | IC50 (Human tumor cells) [nM] | IC50 (COS Cell; read-out: Cos Cell) [nM] | IC50 [1, 2] [nM] | IC50 [1, 3] [nM] | IC50 (COS Cell; read-out: Cos Cell IC50) [nM] | IC50 [1, 4] [nM] |
| --- | --- | --- | --- | --- | --- | --- |
| O=C(CC1CCN(C(=O)Cn2cnc3ccccc32)CC1)N1CCC([C@H]2c3ncc(Br)cc3CCc3cc(Cl)cc(Br)c32)CC1 [Compound 12.0-B] | ≥ 19.5 | ≥ 9 | 14.5 to 71.2 | 0.7 to 18 | – | – |
| O=C(CC1CCN(C(=O)Cn2cncn2)CC1)N1CCC([C@H]2c3ncc(Br)cc3CCc3cc(Cl)cc(Br)c32)CC1 [Compound 57.0-B] | ≥ 19.5 | ≥ 9 | – | 0.7 to 18 | – | – |
| O=C(CC1CCN(C(=O)CC2CCCO2)CC1)N1CCC([C@H]2c3ncc(Br)cc3CCc3cc(Cl)cc(Br)c32)CC1 (stereo partly shown) [Compound 114.4-B] | ≥ 19.5 | ≥ 9 | – | 0.7 to 18 | – | – |
| O=C(CC1CCN(C(=O)Cn2cnc3cccnc32)CC1)N1CCC([C@H]2c3ncc(Br)cc3CCc3cc(Cl)cc(Br)c32)CC1 [Compound 13.0-B] | ≥ 19.5 | ≥ 9 | 14.5 to 71.2 | 0.7 to 18 | – | – |
| O=C(OCc1ccccc1)c1cccn1CC(=O)N1CCC(CC(=O)N2CCC([C@H]3c4ncc(Br)cc4CCc4cc(Cl)cc(Br)c43)CC2)CC1 [Compound 55.0-B] | ≥ 19.5 | ≥ 9 | – | 0.7 to 18 | – | – |
| O=C(Cc1cccs1)N1CCC(CC(=O)N2CCC([C@H]3c4ncc(Br)cc4CCc4cc(Cl)cc(Br)c43)CC2)CC1 [Compound 82.0-B] | ≥ 19.5 | ≥ 9 | – | 0.7 to 18 | – | – |
| COC(=O)c1cccn1CC(=O)N1CCC(CC(=O)N2CCC([C@H]3c4ncc(Br)cc4CCc4cc(Cl)cc(Br)c43)CC2)CC1 [Compound 35.0-B] | ≥ 19.5 | ≥ 9 | – | 0.7 to 18 | – | – |
| CN(C)CCC(=O)N1CCC(CC(=O)N2CCC(C3c4ncc(Br)cc4CCc4cc(Cl)cc(Br)c43)CC2)CC1 (single isomer, unassigned; (+)) [Compound 12.3] | ≥ 19.5 | – | 14.5 to 71.2 | – | 10 to 700 | 2 to 31.7 |
| O=C(C(=O)N1CCC(CC(=O)N2CCC([C@H]3c4ncc(Br)cc4CCc4cc(Cl)cc(Br)c43)CC2)CC1)c1cccs1 [Compound 81.0-B] | ≥ 19.5 | ≥ 9 | – | 0.7 to 18 | – | – |
| O=C(O)C[C@H](O)CC(=O)N1CCC(CC(=O)N2CCC([C@H]3c4ncc(Br)cc4CCc4cc(Cl)cc(Br)c43)CC2)CC1 [Compound 74.0-B] | ≥ 19.5 | ≥ 9 | – | 0.7 to 18 | – | – |
| COC(=O)CCCCC(=O)N1CCC(CC(=O)N2CCC([C@H]3c4ncc(Br)cc4CCc4cc(Cl)cc(Br)c43)CC2)CC1 [Compound 101.0-B] | ≥ 19.5 | ≥ 9 | – | 0.7 to 18 | – | – |
| COC(=O)C(=O)N1CCC(CC(=O)N2CCC([C@H]3c4ncc(Br)cc4CCc4cc(Cl)cc(Br)c43)CC2)CC1 [Compound 104.0-B] | ≥ 19.5 | ≥ 9 | – | – | – | 2 to 31.7 |
| O=C(CC1CCN(C(=O)Cn2cnc([N+](=O)[O-])c2)CC1)N1CCC([C@H]2c3ncc(Br)cc3CCc3cc(Cl)cc(Br)c32)CC1 [Compound 26.0-B] | ≥ 19.5 | ≥ 9 | – | 0.7 to 18 | – | – |
| NC(=O)CC(=O)N1CCC(CC(=O)N2CCC([C@H]3c4ncc(Br)cc4CCc4cc(Cl)cc(Br)c43)CC2)CC1 [Compound 50.0-B] | ≥ 19.5 | ≥ 9 | – | 0.7 to 18 | – | – |
| O=C(CON=Cc1cc[n+]([O-])cc1)N1CCC(CC(=O)N2CCC(C3c4ncc(Br)cc4CCc4cc(Cl)cc(Br)c43)CC2)CC1 (stereo not shown) [Compound 22.0-B] | ≥ 19.5 | ≥ 9 | – | 0.7 to 18 | – | – |
| CC(C)=NOCCC(=O)N1CCC(CC(=O)N2CCC([C@H]3c4ncc(Br)cc4CCc4cc(Cl)cc(Br)c43)CC2)CC1 [Compound 23.0-B] | ≥ 19.5 | ≥ 9 | – | 0.7 to 18 | – | 2 to 31.7 |

From patent publication EP0942906B1, “COMPOUNDS USEFUL FOR INHIBITION OF FARNESYL PROTEIN TRANSFERASE” (SCHERING CORPORATION, priority 1996, dated 1998)
